Assay results taken from publication PMC12203311, “Design, synthesis, in silico and in vitro evaluation of pyrrole–indole hybrids as dual tubulin and aromatase inhibitors with potent anticancer activities” (RSC Advances, 2025).
Read-outs that look alike come from different tables or passages of the source.

Assays:
K-562 = assay: NCI60 five-dose screen; assay type: cell-based; conditions: Homo sapiens, K562, K-562, leukemia; for CC50: read-out: LC50 (the source's name)
UACC-257 = assay: NCI60 five-dose screen; assay type: cell-based; conditions: Homo sapiens, UACC-257, melanoma; for CC50: read-out: LC50 (the source's name)
Human CYP19 (aromatase) = target: T1, Human CYP19 (aromatase) (Homo sapiens, UniProt P11511); assay: Aromatase inhibition assay (DBF fluorometric substrate); assay type: biochemical; conditions: active defined as IC50 < 12.5 µM
T1 construct: purchased GENTEST, Woburn, MA 456260; host or cells: baculovirus/insect cells
T1 sequence (P11511 1-503): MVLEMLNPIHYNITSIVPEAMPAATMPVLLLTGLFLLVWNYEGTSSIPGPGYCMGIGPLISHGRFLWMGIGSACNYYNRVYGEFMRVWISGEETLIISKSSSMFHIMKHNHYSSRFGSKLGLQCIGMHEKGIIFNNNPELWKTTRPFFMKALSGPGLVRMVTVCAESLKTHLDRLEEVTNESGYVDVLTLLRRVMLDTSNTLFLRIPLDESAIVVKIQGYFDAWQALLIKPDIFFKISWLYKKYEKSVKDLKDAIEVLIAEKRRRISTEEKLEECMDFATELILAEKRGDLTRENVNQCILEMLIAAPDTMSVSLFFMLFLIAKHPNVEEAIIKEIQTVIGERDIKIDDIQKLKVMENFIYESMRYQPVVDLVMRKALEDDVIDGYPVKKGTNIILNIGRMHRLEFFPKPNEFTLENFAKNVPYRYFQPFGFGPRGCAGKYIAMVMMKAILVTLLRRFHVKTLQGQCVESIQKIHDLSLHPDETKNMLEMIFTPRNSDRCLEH
Experimental: Aromatase enzyme was purchased from GENTEST, Woburn, MA01801, USA (Supersom human CYP19+oxidoreductase, baculovirus/insect cell-expressed; Product No. 456260). The aromatase inhibitory activity was performed using Human CYP19 enzymes and DBF as a fluorometric substrate as described by Stresser, et al.[41] with minor modifications. The mixture, containing 100 µL of cofactor/serial dilution buffer was pre-incubated in 37 °C for 10 min. […] After incubation at 37 °C for 30 min, the reaction was stopped by addition of 50 µL of 2.2 M NaOH. Fluorescence signal was monitored using an excitation wavelength of 490 nm and emission wavelength of 530 nm.

HCT-116 = assay: NCI60 five-dose screen; assay type: cell-based; conditions: Homo sapiens, HCT-116, colon cancer; for CC50: read-out: LC50 (the source's name)
786-0 = assay: NCI60 five-dose screen; assay type: cell-based; conditions: Homo sapiens, 786-0, renal cancer; for CC50: read-out: LC50 (the source's name)
SNB-19 = assay: NCI60 five-dose screen; assay type: cell-based; conditions: Homo sapiens, SNB-19, CNS cancer; for CC50: read-out: LC50 (the source's name)
SK-MEL-5 = assay: NCI60 five-dose screen; assay type: cell-based, human; conditions: for CC50: read-out: LC50 (the source's name)
CAKI-1 = assay: NCI60 five-dose screen; assay type: cell-based; conditions: Homo sapiens, CAKI-1, renal cancer; for CC50: read-out: LC50 (the source's name)
MDA-MB-435 = assay: NCI60 five-dose screen; assay type: cell-based, human; conditions: Homo sapiens; for GI50: MDA-MB-435, melanoma
OVCAR-4 = assay: NCI60 five-dose screen; assay type: cell-based; conditions: Homo sapiens, OVCAR-4, ovarian cancer; for CC50: read-out: LC50 (the source's name)
NCI-H522 = assay: NCI60 five-dose screen; assay type: cell-based; conditions: Homo sapiens, NCI-H522, NSC lung cancer; for CC50: read-out: LC50 (the source's name)
NCI-H226 = assay: NCI60 five-dose screen; assay type: cell-based; conditions: Homo sapiens, NCI-H226, NSC lung cancer; for CC50: read-out: LC50 (the source's name)
HT29 = assay: NCI60 five-dose screen; assay type: cell-based; conditions: Homo sapiens, HT-29, HT29, colon cancer; for CC50: read-out: LC50 (the source's name)
HCC-2998 = assay: NCI60 five-dose screen; assay type: cell-based; conditions: Homo sapiens, HCC-2998, colon cancer; for CC50: read-out: LC50 (the source's name)
SNB-75 = assay: NCI60 five-dose screen; assay type: cell-based; conditions: Homo sapiens, SNB-75, CNS cancer; for CC50: read-out: LC50 (the source's name)
DU-145 = assay: NCI60 five-dose screen; assay type: cell-based; conditions: Homo sapiens, DU-145, prostate cancer; for CC50: read-out: LC50 (the source's name)
LOX IMVI = assay: NCI60 five-dose screen; assay type: cell-based; conditions: Homo sapiens, melanoma; for CC50: read-out: LC50 (the source's name)
ACHN = assay: NCI60 five-dose screen; assay type: cell-based; conditions: Homo sapiens, renal cancer; for CC50: read-out: LC50 (the source's name)
NCI-H460 = assay: NCI60 five-dose screen; assay type: cell-based; conditions: Homo sapiens, NCI-H460, NSC lung cancer; for CC50: read-out: LC50 (the source's name)
OVCAR-8 = assay: NCI60 five-dose screen; assay type: cell-based; conditions: Homo sapiens, OVCAR-8, ovarian cancer; for CC50: read-out: LC50 (the source's name)
CCRF-CEM = assay: NCI60 five-dose screen; assay type: cell-based; conditions: Homo sapiens, leukemia; for CC50: read-out: LC50 (the source's name)
OVCAR-5 = assay: NCI60 five-dose screen; assay type: cell-based; conditions: Homo sapiens, OVCAR-5, ovarian cancer; for CC50: read-out: LC50 (the source's name)
RPMI-8226 = assay: NCI60 five-dose screen; assay type: cell-based; conditions: Homo sapiens, RPMI-8226, leukemia; for CC50: read-out: LC50 (the source's name)
[1] = Homo sapiens, SK-MEL-5, SK-MEL-5, melanoma
[2] = Homo sapiens, SK-MEL-5, melanoma

In the case of `Cc1cc(C)c(/C=N/NC(=O)c2[nH]c3ccc(Br)cc3c2-c2ccccc2)[nH]1` [Derivative 3c, (E)-5-Bromo-N′-((3,5-dimethyl-1H-pyrrol-2-yl)methylene)-3-phenyl-1H-2-carbohydrazide], the GI50 (K-562) is reported as 2.43 µM, the CC50 (K-562) is reported as greater than 100 µM and the GI50 (UACC-257) is reported as 4.35 µM. It also gave a CC50 (UACC-257) of 49.2 µM, an IC50 (Human CYP19 (aromatase)) of 11.1 ± 2 µM and a GI50 (HCT-116) of 4.02 µM. The CC50 (HCT-116) was greater than 100 µM, the GI50 (786-0) was 5.19 µM and the CC50 (786-0) was 63.9 µM. The GI50 (SNB-19) was 3.86 µM, the CC50 (SNB-19) was 39.4 µM and the CC50 (SK-MEL-5; [1]) was 19.3 µM. For the same molecule, the GI50 (SK-MEL-5; [2]) was 2.52 µM, the CC50 (SK-MEL-5; SK-MEL-5, melanoma) was 28.8 µM and the GI50 (CAKI-1) was 3.17 µM. It also gave a CC50 (CAKI-1) of 39.1 µM, a CC50 (MDA-MB-435; MDA-MB-435, MDA-MB-435, melanoma, read-out: LC50 (the source's name)) of 34 µM and a GI50 (MDA-MB-435) of 2.84 µM. The GI50 (OVCAR-4) was 3.55 µM, the CC50 (OVCAR-4) was 40.7 µM and the GI50 (NCI-H522) was 2.61 µM. For the same molecule, the CC50 (NCI-H522) was 32.7 µM, the GI50 (NCI-H226) was 2.58 µM and the CC50 (NCI-H226) was 34.4 µM. It also gave a GI50 (HT29) of 3.53 µM, a CC50 (HT29) of 46.6 µM and a GI50 (HCC-2998) of 3.55 µM. For the same molecule, the CC50 (HCC-2998) was 37.2 µM, the GI50 (SNB-75) was 2.68 µM and the CC50 (SNB-75) was 43.9 µM. It also gave a GI50 (DU-145) of 4.07 µM, a CC50 (DU-145) of 38.9 µM and a GI50 (LOX IMVI) of 2.43 µM. The CC50 (LOX IMVI) was 30.2 µM, the GI50 (ACHN) was 3.03 µM and the CC50 (ACHN) was 34.2 µM. It also gave a GI50 (NCI-H460) of 2.83 µM, a CC50 (NCI-H460) of 37.9 µM and a GI50 (OVCAR-8) of 3.1 µM. The CC50 (OVCAR-8) was 45 µM, the GI50 (CCRF-CEM) was 3.07 µM and the CC50 (CCRF-CEM) was greater than 100 µM. It also gave a GI50 (OVCAR-5) of 3.63 µM, a CC50 (OVCAR-5) of 37.6 µM and a GI50 (RPMI-8226) of 2.43 µM. For the same molecule, the CC50 (RPMI-8226) was greater than 100 µM.

Molecule `Cn1cccc1/C=N/NC(=O)c1[nH]c2ccc(Br)cc2c1-c1ccccc1` [Derivative 3d, (E)-5-Bromo-N′-((1-methyl-1H-pyrrol-2-yl)methylene)-3-phenyl-1H-indole-2-carbohydrazide] has a GI50 (K-562) of 0.327 µM, a CC50 (K-562) greater than 100 µM and a GI50 (UACC-257) of 0.416 µM. For the same molecule, the CC50 (UACC-257) was greater than 100 µM, the IC50 (Human CYP19 (aromatase)) was greater than 12.5 µM and the “aromatase inhibition” value (Human CYP19 (aromatase)) was “inactivity against aromatase”. It also gave a GI50 (HCT-116) of 0.427 µM, a CC50 (HCT-116) greater than 100 µM and a GI50 (786-0) of 29.4 µM. For the same molecule, the CC50 (786-0) was greater than 100 µM, the GI50 (SNB-19) was 0.449 µM and the CC50 (SNB-19) was greater than 100 µM. It also gave a CC50 (SK-MEL-5; [1]) greater than 100 µM, a GI50 (SK-MEL-5; [2]) of 0.196 µM and a GI50 (CAKI-1) of 0.255 µM. The CC50 (CAKI-1) was greater than 100 µM, the GI50 (MDA-MB-435) was 0.151 µM and the GI50 (OVCAR-4) was 0.637 µM. It also gave a CC50 (OVCAR-4) greater than 100 µM, a GI50 (NCI-H522) of 0.217 µM and a CC50 (NCI-H522) greater than 100 µM. For the same molecule, the GI50 (NCI-H226) was 0.603 µM, the CC50 (NCI-H226) was greater than 100 µM and the GI50 (HT29) was 0.327 µM. The CC50 (HT29) was greater than 100 µM, the GI50 (HCC-2998) was 0.402 µM and the CC50 (HCC-2998) was greater than 100 µM. For the same molecule, the GI50 (SNB-75) was 0.259 µM, the CC50 (SNB-75) was greater than 100 µM and the GI50 (DU-145) was 0.399 µM. The CC50 (DU-145) was greater than 100 µM, the GI50 (LOX IMVI) was 0.494 µM and the CC50 (LOX IMVI) was greater than 100 µM. It also gave a GI50 (ACHN) of 0.175 µM, a CC50 (ACHN) greater than 100 µM and a GI50 (NCI-H460) of 0.442 µM. For the same molecule, the CC50 (NCI-H460) was greater than 100 µM, the GI50 (OVCAR-8) was 0.39 µM and the CC50 (OVCAR-8) was greater than 100 µM. The GI50 (CCRF-CEM) was 0.429 µM, the CC50 (CCRF-CEM) was greater than 100 µM and the GI50 (OVCAR-5) was 0.472 µM. The CC50 (OVCAR-5) was greater than 100 µM, the GI50 (RPMI-8226) was 0.61 µM and the CC50 (RPMI-8226) was greater than 100 µM.
